Measured values published in patent US12097213B2, “Sequential treatment of cancers using 6-thio-dG, checkpoint inhibitors and radiation therapy” (The Board of Regents of the University of Texas System, priority 2020, dated 2024).

Tests used:
Format in all cases: in vivo, mouse
MC38 tumor cells = assay: MC38 tumor growth and treatment in mice
Method: (§1) Tumor growth and treatment. A total of 5×10^5 MC38, 5×10^5 CT26 or 1×10^6 LLC cells were inoculated subcutaneously into right dorsal flanks of the mice in 100 μL phosphate buffered saline (PBS). Tumor-bearing mice were randomly grouped into treatment groups when tumors grew to around 100 mm^3. For 6-thio-dG single treatment, 3 mg/kg 6-thio-dG was intraperitoneally given on days 7, 8 and 9 in MC38 tumor and LLC tumor and on days 5, 6, 7 for CT26 tumor. For CSF1R, NKL.1, CD4+ and CD8+ T cell depletion, 200 μg of antibodies were intraperitoneally injected 1 day before treatment initiation and then twice a week for 2 weeks. For PD-L1 blockade combination therapy in MC38 model, 6-thio-dG was given on day 10 and day 11, 50 μg PD-L1 was intraperitoneally injected on day 13 and 17. For PD-L1 blockade combination therapy in LLC model, 6-thio-dG was given on day 4, 5, 6, 10 and 11, 200 μg PD-L1 was intraperitoneally injected on day 8 and 13. Tumor volumes were measured by the length (a), width (b) and height (h) and calculated as tumor volume=abh/2.

tumor-specific T cells = assay: IFN-γ ELISPOT of splenocytes / draining lymph node cells; conditions: advanced MC38 tumors; stimulated with irradiated MC38 tumor cells
Method: IFN-γ enzyme-linked immunosorbent spot assay (ELISPOT). MC38 tumors were injected subcutaneously on the right flank of C57BL/6. For 6-thio-dG single treatment, 3 mg/kg 6-thio-dG was intraperitoneally given on days 7, 8 and 9; for PD-L1 blockade combination therapy in MC38 model, 3 mg/kg 6-thio-dG was given on day 10 and day 11, 50 μg PD-L1 was intraperitoneally injected on day 11. 7 days after last treatment, tumor draining lymphoid and spleen from tumor-bearing mice were collected and single-cell suspension was prepared. Irradiated MC38 tumor cells and control LLC tumor cells were used to re-stimulate the tumor-specific T cells. 1.5×10^5 draining lymph nodes cells or splenocytes and 7.5×10^4 irradiated tumor cells were co-cultured for 48 hrs, and ELISPOT assay was performed using the IFN-γ ELISPOT kit (BD Bioscience) according to the manufacturer's instructions. IFN-γ spots were enumerated with the CTL-ImmunoSpot® S6 Analyzer (Cellular Technology Limited).

[1] = test system: LLC murine lung tumor cells; assay: LLC tumor growth and treatment in mice
Method: as §1, with “For 6-thio-dG single treatment, 3 mg/kg 6-thio-dG was intraperitoneally given on days 7, 8 and 9 in MC38 tumor and LLC tumor and on days 5, 6, 7 for CT26 tumor.” left out

**Q.** What does the source list for “anti-PD-L1: fully humanized, engineered monoclonal antibody of IgG1 isotype against PD-L1 (Atezolizumab) [reference compound]”?
**A.** MC38 tumors in LLC cured mice (MC38 tumor cells; LLC cured mice injected with MC38): had no affect; tumor volume / tumor growth in advanced tumors (MC38 tumor cells; tumor sizes 150-200 mm^3, 6-thio-dG 3 mg/kg days 10, 11, 50 μg anti-PD-L1 days 13 and 17): difficult to control; tumor-specific T cell response in draining lymph nodes (IFN-γ production) (tumor-specific T cells): little effect; tumor burden ([1]; PD-L1 blockade resistant LLC model, 6-thio-dG 3 mg/kg days 4, 5, 6, 10, 11, 200 μg anti-PD-L1 days 8 and 13): no therapeutic effect; tumor growth (FIG. 8A) ([1]; lewis lung carcinoma, three days 6-thio-dG followed two days later with anti-PD-L1): same rapid tumor growth
